Experiments:
[1] = Fluorescence assay of 6FAM-labelled aptamer bound to DPPC+DPPS liposomes; type: binding
Excerpt: (§1) Two of the top-ranked 6-mer DNA designed aptamers targeting PS were chosen for experimental investigations. Both sequences containing fluorescence tags (6FAM is on the 3′ end of the DNA sequence) were obtained from Integrated DNA Technologies, Commercial Park, Coralville Iowa, USA. 96 well assay plates for fluorescence assays using FLUOstar OPTIMA (BMG Labtech GmbH, Offenburg, Germany) were from Corning Inc., New York, USA. Two lipids, 1,2-dipalmitoyl-sn-glycero-3-phosphatidylcholine (DPPC) and 1,2-dipalmitoyl-sn-glycero-3-phospho-L-serine (sodium salt) (DPPS) in chloroform stock and cholesterol (powder) were obtained from Avanti Polar Lipids (Alabaster, Ala., USA). They were used without further purification.
(§2) Two liposomes were prepared for studying binding affinity and specificity. One uses DPPC and DPPS at a 10:1 DPPC/DPPS molar ratio and the second one uses DPPC alone. […] 100 μL from this final solution was loaded into each of the 96 wells on the fluorescence plate to measure fluorescence of the samples. […]
(§3) Both sequences containing fluorescence tags (6FAM is on the 3′ end of the DNA sequence) were obtained from Integrated DNA Technologies, Commercial Park, Coralville Iowa, USA. 96 well assay plates for fluorescence assays using FLUOstar OPTIMA (BMG Labtech GmbH, Offenburg, Germany) were from Corning Inc., New York, USA. […]

[2] = Fluorescence assay of 6FAM-labelled aptamer bound to DPPC alone liposomes (control without PS); type: binding; conditions: FIG. 8 right panel
Excerpt: as §1, §2, §3

Sequence: AAAGAC [PS-aptamer II]
- binding affinity (inferred from fluorescence) [1]: relatively better or stronger binding affinity than PS-aptamer I
- fluorescence level from bound DNA aptamer ([1]; FIG. 8 left panel, aptamer beyond 0.165 nmol): higher fluorescence level than PS-aptamer I
- fluorescence level from bound DNA aptamer [2]: binds either poorly or not at all
